{"source": "ChEMBL document CHEMBL4130634", "about": "“Discovery of Reversible DNA Methyltransferase and Lysine Methyltransferase G9a Inhibitors with Antitumoral in Vivo Efficacy” (J Med Chem, 2018)", "key": {"[1]": {"assay": "Permeability of the compound at 50 uM after 18 hrs by PAMPA", "format": "ADME", "settings": "read-out: permeability"}, "[2]": {"assay": "Clearance in RARG2-/-gammac-/- Balb/c mouse at 5 mg/kg, iv administered as single dose by LC-MS/MS analysis", "format": "ADME, organism-based", "settings": "in vivo"}, "[3]": {"assay": "Growth inhibition of human CEMO1 cells after 48 hrs by MTS assay", "format": "functional"}, "[4]": {"assay": "Volume of distribution at steady state in RARG2-/-gammac-/- Balb/c mouse at 5 mg/kg, iv administered as single dose by LC-MS/MS analysis", "format": "ADME, organism-based", "settings": "in vivo, read-out: Vdss"}, "[5]": {"target": "CYP3A4 (Homo sapiens, UniProt P08684)", "sequence (P08684 whole entry)": "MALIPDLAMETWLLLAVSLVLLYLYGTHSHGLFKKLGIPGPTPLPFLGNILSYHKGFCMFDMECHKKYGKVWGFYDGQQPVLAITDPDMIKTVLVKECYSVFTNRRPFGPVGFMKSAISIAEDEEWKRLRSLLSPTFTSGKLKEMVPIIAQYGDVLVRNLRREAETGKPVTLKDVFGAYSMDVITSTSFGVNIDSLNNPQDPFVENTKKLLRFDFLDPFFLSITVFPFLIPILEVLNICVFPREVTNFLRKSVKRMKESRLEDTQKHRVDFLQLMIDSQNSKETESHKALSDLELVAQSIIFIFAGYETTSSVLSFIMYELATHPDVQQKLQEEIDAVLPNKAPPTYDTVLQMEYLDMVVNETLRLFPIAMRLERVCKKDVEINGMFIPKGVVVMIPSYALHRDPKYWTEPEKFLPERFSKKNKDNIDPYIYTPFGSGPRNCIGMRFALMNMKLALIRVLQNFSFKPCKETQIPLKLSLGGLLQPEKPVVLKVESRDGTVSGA", "assay": "Inhibition of CYP3A4 in human liver microsomes at 10 uM after 10 mins in presence of NADPH by LC-MS/MS analysis relative to control", "format": "ADME"}, "[6]": {"system": "MV4-11", "assay": "Growth inhibition of human MV4-11 cells after 48 hrs by MTS assay", "format": "functional", "settings": "MV4-11, 48 h"}, "[7]": {"target": "T1, Histone-lysine N-methyltransferase EHMT2 (Homo sapiens, UniProt Q96KQ7)", "T1 sequence (Q96KQ7 whole entry)": "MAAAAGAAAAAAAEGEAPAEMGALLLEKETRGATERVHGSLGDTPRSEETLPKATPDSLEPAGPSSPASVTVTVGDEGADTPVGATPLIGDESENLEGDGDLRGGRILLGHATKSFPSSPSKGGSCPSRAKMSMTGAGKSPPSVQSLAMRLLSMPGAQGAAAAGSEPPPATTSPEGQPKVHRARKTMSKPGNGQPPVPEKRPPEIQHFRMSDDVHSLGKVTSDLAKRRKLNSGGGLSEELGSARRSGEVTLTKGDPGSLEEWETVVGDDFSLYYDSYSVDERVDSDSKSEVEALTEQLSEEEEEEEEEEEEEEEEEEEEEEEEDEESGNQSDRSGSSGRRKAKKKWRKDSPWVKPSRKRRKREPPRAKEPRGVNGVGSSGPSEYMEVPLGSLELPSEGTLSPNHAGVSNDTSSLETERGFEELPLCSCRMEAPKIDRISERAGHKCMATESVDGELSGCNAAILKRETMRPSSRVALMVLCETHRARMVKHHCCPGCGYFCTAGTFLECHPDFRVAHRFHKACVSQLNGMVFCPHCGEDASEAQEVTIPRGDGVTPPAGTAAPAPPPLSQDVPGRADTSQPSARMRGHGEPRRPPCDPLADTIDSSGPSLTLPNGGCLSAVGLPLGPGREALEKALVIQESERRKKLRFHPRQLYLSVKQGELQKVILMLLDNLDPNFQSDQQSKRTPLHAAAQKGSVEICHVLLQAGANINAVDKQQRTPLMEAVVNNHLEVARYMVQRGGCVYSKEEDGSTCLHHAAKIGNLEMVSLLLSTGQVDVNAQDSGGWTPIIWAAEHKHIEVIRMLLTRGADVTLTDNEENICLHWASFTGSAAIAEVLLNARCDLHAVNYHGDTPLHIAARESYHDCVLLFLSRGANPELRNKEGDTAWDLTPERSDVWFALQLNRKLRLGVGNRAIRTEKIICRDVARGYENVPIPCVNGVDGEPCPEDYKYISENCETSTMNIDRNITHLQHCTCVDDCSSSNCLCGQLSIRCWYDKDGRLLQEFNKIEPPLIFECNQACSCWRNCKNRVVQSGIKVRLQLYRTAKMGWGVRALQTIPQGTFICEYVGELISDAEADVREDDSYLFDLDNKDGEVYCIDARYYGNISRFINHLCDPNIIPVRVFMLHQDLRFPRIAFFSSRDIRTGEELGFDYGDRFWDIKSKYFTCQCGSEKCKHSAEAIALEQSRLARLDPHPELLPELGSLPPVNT", "assay": "Inhibition of human G9a using biotinylated-H3K9 peptide as substrate after 1 hr in presence of SAM by TR-FRET assay"}, "[8]": {"assay": "Half life in human liver microsomes at 1 uM preincubated for 10 mins followed by NADP addition after 20 mins by LC-MS/MS analysis", "format": "ADME, microsome", "settings": "liver microsomes"}, "[9]": {"system": "THLE-2", "assay": "Growth inhibition of human THLE2 cells after 72 hrs by MTS assay", "format": "cell-based", "settings": "thle-2, 72 h"}, "[10]": {"target": "T2, CYP1A2 (Homo sapiens, UniProt P05177)", "T2 sequence (P05177 whole entry)": "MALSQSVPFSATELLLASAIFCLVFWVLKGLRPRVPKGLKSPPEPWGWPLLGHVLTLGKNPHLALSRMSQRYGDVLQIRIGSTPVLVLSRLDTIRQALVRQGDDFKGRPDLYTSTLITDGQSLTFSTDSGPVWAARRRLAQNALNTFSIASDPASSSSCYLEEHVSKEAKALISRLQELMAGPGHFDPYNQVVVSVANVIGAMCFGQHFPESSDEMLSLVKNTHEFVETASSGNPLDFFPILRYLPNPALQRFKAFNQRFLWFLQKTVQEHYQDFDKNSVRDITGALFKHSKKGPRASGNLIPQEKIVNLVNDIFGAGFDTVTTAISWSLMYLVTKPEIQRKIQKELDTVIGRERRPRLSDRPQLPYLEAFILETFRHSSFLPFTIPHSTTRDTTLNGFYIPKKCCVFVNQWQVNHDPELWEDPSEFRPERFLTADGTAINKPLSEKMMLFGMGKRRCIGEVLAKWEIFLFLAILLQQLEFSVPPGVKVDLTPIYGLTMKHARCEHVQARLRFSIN", "assay": "Inhibition of CYP1A2 in human liver microsomes at 10 uM after 10 mins in presence of NADPH by LC-MS/MS analysis relative to control", "format": "ADME"}, "[11]": {"assay": "Metabolic stability in human liver microsomes assessed as parent compound remaining at 1 uM preincubated for 10 mins followed by NADP addition after 20 mins by LC-MS/MS analysis", "format": "ADME, microsome", "settings": "liver microsomes, read-out: Stability"}, "[12]": {"assay": "Growth inhibition of human LAL-CUN-2 cells after 48 hrs by MTS assay", "format": "functional"}, "[13]": {"target": "CYP2C19 (Homo sapiens, UniProt P33261)", "sequence (P33261 whole entry)": "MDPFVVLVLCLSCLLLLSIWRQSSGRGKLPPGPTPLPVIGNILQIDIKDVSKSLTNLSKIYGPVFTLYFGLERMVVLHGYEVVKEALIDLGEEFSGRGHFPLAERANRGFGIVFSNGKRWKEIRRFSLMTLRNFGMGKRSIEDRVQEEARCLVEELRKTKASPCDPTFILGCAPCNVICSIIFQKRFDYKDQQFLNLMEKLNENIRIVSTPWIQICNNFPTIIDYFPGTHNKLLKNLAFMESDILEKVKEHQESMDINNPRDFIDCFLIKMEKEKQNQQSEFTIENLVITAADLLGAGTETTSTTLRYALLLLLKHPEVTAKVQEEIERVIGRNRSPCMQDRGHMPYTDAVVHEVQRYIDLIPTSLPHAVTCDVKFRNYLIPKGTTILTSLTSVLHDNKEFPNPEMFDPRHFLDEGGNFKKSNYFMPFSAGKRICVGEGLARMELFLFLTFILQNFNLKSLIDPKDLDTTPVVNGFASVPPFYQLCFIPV", "assay": "Inhibition of CYP2C19 in human liver microsomes at 10 uM after 10 mins in presence of NADPH by LC-MS/MS analysis relative to control", "format": "ADME"}, "[14]": {"system": "OCI-Ly3", "assay": "Growth inhibition of human OCI-LY3 cells after 48 hrs by MTS assay", "format": "functional", "settings": "OCI-Ly3, 48 h"}, "[15]": {"assay": "Half life in RARG2-/-gammac-/- Balb/c mouse at 5 mg/kg, iv administered as single dose by LC-MS/MS analysis", "format": "ADME, organism-based", "settings": "in vivo"}}}
{"smiles": "COc1cc2c(NC3CCN(C4CC4)CC3)cc(-c3ccc(C)o3)nc2cc1OCCCN1CCCC1", "values": [{"measurement": "Papp at 18 h, 50 µM", "setting": "[1]", "result": 4.04, "unit": "×10⁻⁶ cm/s"}, {"measurement": "clearance", "setting": "[2]", "result": 15, "unit": "mL/min/kg"}, {"measurement": "GI50", "setting": "[3]", "result": 453, "unit": "nM"}, {"measurement": "Vd", "setting": "[4]", "result": 11.9, "unit": "L/kg"}, {"measurement": "inhibition at 10 min, 10 µM", "setting": "[5]", "result": 4.6, "unit": "%"}, {"measurement": "GI50", "setting": "[6]", "result": 1590, "unit": "nM"}, {"measurement": "IC50", "setting": "[7]", "result": 22, "unit": "nM"}, {"measurement": "half-life at 1 µM", "setting": "[8]", "result": "> 2.4", "unit": "h"}, {"measurement": "LC50", "setting": "[9]", "result": 455, "unit": "nM"}, {"measurement": "inhibition at 10 min, 10 µM", "setting": "[10]", "result": 28.6, "unit": "%"}, {"measurement": "remaining at 20 min, 1 µM", "setting": "[11]", "result": 97, "unit": "%"}, {"measurement": "GI50", "setting": "[12]", "result": 1380, "unit": "nM"}, {"measurement": "inhibition at 10 min, 10 µM", "setting": "[13]", "result": 4, "unit": "%"}, {"measurement": "GI50", "setting": "[14]", "result": 187, "unit": "nM"}, {"measurement": "half-life", "setting": "[15]", "result": 10.4, "unit": "h"}]}
